Counter-ions that a name gives are not always drawn.
These compounds were tested against PAI-1 (Homo sapiens, UniProt P05121) (assay: biochemical). Details: 20 μM (third part of Table 1); read-out: Degree of inhibition in PAI chromogenic substrate assay.
PAI-1, sequence (P05121 24-402): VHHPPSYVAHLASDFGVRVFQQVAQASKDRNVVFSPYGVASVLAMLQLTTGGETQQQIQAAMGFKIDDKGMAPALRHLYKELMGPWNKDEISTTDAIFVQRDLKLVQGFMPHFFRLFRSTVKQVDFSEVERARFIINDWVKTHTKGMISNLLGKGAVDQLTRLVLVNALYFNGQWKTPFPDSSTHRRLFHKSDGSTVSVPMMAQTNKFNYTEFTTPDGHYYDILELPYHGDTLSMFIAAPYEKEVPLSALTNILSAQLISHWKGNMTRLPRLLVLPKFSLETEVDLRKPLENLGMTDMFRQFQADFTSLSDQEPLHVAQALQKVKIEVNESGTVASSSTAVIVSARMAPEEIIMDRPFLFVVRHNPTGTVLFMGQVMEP
Procedure: In this assay, a compound is incubated with PAI-1 prior to addition to the tPA assay system. Inhibition of PAI-1 results in the production of plasmin from plasminogen. In turn, plasmin cleaves the chromogenic substrate S2251 (Kabi Vitrum) producing pNA (p-nitroaniline) which is detected spectrophotometrically at 405 nm (K. Nilsson et al, Fibrinolysis (1987) 1, 163-168).
Compounds of formula (A) were tested in a PAI chromogenic substrate assay. In the assay (K.Nilsson, Fibrinolysis (1987) 1, 163-168) each compound was incubated with PAI-1 prior to addition to the tPA assay system. […] In turn, the plasmin cleaved the chromogenic substrate S2251 (Kabi-Vitrum) producing pNA (p-nitroaniline) which was detected spectrophotometrically at 405 nm.
`CN(C)CCCOc1ccc(/C=c2\[nH]c(=O)/c(=C/c3ccc(Cl)c([N+](=O)[O-])c3)[nH]c2=O)cc1` [Compound 5398, (3Z,6Z)-3-(4-Chloro-3-nitrobenzylidene)-6-(4-(3-dimethylaminopropoxy)benzylidene)-2,5-piperazinedione] gave an inhibition at 20 µM of 54%.
For `COC(=O)c1ccc(/C=c2\[nH]c(=O)/c(=C/c3ccc(OCCCN(C)C)cc3)[nH]c2=O)cc1` [Compound 5401, Methyl 4((3Z,6Z)-6-(4-(3-Dimethylaminopropoxy)benzylidene)-2,5-dioxo-3-piperazinylidene)methylbenzoate], the inhibition at 20 µM was 42%.

Same assay, conditions: IC50, PAI chromogenic substrate assay
`CN(C)CCCOc1ccc(/C=c2\[nH]c(=O)/c(=C/c3cc([N+](=O)[O-])cc([N+](=O)[O-])c3)[nH]c2=O)cc1` [Compound 5378, (3Z,6Z)-6-(4-(3-Dimethylaminopropoxy)benzylidene)-3-(3,5-dinitrobenzylidene)-2,5-piperazinedione] gave an IC50 of 20 µM.
`CN(C)CCCOc1ccc(/C=c2\[nH]c(=O)/c(=C/c3cc([N+](=O)[O-])cc([N+](=O)[O-])c3)[nH]c2=O)cc1` [Compound 5381, (3Z,6Z)-6-(4-(3-Dimethylaminopropoxy)benzylidene)-3-(3,5-dinitrobenzylidene)-2,5-piperazinedione] was tested, and the IC50 was 15 µM.

Same assay, conditions: PAI chromogenic substrate assay; read-out: IC50
Compound `CN(C)CCCOc1ccc(/C=c2\[nH]c(=O)/c(=C/c3ccc(F)cc3)[nH]c2=O)cc1` [Compound 5365.HCl, (3Z,6Z)-3-(4-(3-Dimethylaminopropoxy)benzylidene)-6-(4-fluorobenzylidene)-2,5-piperazinedione] has an IC50 of 3.3 µM.
With `CN(C)CCCOc1ccc(/C=c2\[nH]c(=O)/c(=C/c3cc(Cl)cc(Cl)c3)[nH]c2=O)cc1` [Compound 5372, (3Z,6Z)-3-(3,5-Dichlorobenzylidene)-6-(4-(3-dimethylaminopropoxy)benzylidene)-2,5-piperazinedione] the IC50 was 11 µM.
`CN(C)CCCOc1ccc(/C=c2\[nH]c(=O)/c(=C/c3cccc(F)c3)[nH]c2=O)cc1` [Compound 5373, (3Z,6Z)-6-(4-(3-Dimethylaminopropoxy)benzylidene)-3-(3-fluorobenzylidene)-2,5-piperazinedione] gave an IC50 of 13 µM.
`CN(C)CCCOc1ccc(/C=c2\[nH]c(=O)/c(=C/c3cccc(OC(F)(F)F)c3)[nH]c2=O)cc1` [Compound 5374, (3Z,6Z)-6-(4-(3-Dimethylaminopropoxy)benzylidene)-3-(3-trifluoromethoxybenzylidene)-2,5-piperazinedione] was tested, and the IC50 was 15 µM.
Work on `CN(C)CCCOc1ccc(/C=c2\[nH]c(=O)/c(=C/c3cccc(Br)c3)[nH]c2=O)cc1` [Compound 5375, (3Z,6Z)-3-(3-Bromobenzylidene)-6-(4-(3-dimethylaminopropoxy)benzylidene)-2,5-piperazinedione] yielded an IC50 of 4.5 µM.
In the case of `CN(C)CCCOc1ccc(/C=c2\[nH]c(=O)/c(=C/c3cc(Cl)cc(Cl)c3)[nH]c2=O)cc1` [Compound 5380, (3Z,6Z)-3-(3,5-Dichlorobenzylidene)-6-(4-(3-dimethylaminopropoxy)benzylidene)-2,5-piperazinedione], the IC50 is reported as 15 µM.
`CSc1ccc(/C=c2\[nH]c(=O)/c(=C/c3ccc(OCCCN(C)C)cc3)[nH]c2=O)cc1` [Compound 5385, (3Z,6Z)-3-(4-(3-Dimethylaminopropoxy)benzylidene)-6-(4-methylthiobenzylidene)-2,5-piperazinedione] showed an IC50 of 2 µM.
In the case of `CN(C)CCCOc1ccc(/C=c2\[nH]c(=O)/c(=C/c3ccc(Cl)c([N+](=O)[O-])c3)[nH]c2=O)cc1` [Compound 5398, (3Z,6Z)-3-(4-Chloro-3-nitrobenzylidene)-6-(4-(3-dimethylaminopropoxy)benzylidene)-2,5-piperazinedione], the IC50 is reported as 4.2 µM.

Same assay, conditions: read-out: Degree of inhibition in PAI chromogenic substrate assay
In the case of `CN(C)CCCOc1ccc(/C=c2\[nH]c(=O)/c(=C/c3cc([N+](=O)[O-])cc([N+](=O)[O-])c3)[nH]c2=O)cc1` [Compound 5378, (3Z,6Z)-6-(4-(3-Dimethylaminopropoxy)benzylidene)-3-(3,5-dinitrobenzylidene)-2,5-piperazinedione], the inhibition at 20 µM is reported as 50%.

From US5902812A, “Pharmaceutical piperazine compounds” (Xenova Limited, priority 1994, dated 1999)
